One assay has as its target T1, Aurora2 (Aurora-A) (Homo sapiens, UniProt O14965).
T1 construct: Aurora-A: the full length recombinant protein including an N-terminal poly-histidine tail has been expressed in E. coli; poly-histidine (N); made in house; host or cells: E. coli
T1 sequence (O14965 1-403): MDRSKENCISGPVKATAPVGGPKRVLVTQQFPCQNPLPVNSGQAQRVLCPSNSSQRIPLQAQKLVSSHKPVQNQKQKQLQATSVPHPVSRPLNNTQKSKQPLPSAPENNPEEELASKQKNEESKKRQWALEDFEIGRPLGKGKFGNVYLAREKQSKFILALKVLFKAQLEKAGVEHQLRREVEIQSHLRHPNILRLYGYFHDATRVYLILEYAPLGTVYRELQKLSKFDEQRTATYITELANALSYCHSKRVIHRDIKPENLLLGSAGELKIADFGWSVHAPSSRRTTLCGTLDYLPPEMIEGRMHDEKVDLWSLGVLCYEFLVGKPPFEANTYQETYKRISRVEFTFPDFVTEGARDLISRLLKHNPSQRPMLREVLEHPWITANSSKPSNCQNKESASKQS
The experiment in a line: Aurora 2 (Aurora A) kinase radioactivity scintillation assay using nickel chelate Flash plates. Format: biochemical. The conditions noted are these: 10 nM Aurora-A, 500 nM NuMA substrate, 1 μM ATP with [33P] ATP, 10 mM MgCl2, 30 minutes, 37° C. The method in brief:
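10 nM Aurora-B or Aurora-A with 500 nM NuMA-His substrate, 1 μM ATP plus [³³P]ATP, in 50 mM NaCl, 1 mM DTT and 5 mM (B) or 10 mM (A) MgCl2, 30 min at 37° C on nickel-chelate plates. Incorporated ³³P counted after washing, background-subtracted; IC50 fitted from % inhibition versus concentration.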

A further assay has as its target T2, Aurora1 (Aurora-B) (Homo sapiens, UniProt Q96GD4).
T2 construct: Aurora-B: the full length protein (His tagged in N-terminal) has been co expressed in SF9 cells; poly-histidine (N); made in house; host or cells: SF9 cells
The experiment in a line: Aurora 1 (Aurora B) kinase radioactivity scintillation assay using nickel chelate Flash plates. Format: biochemical. The conditions noted are these: 10 nM Aurora-B (co expressed with C3 fragment of INCEP), 500 nM NuMA substrate, 1 μM ATP with [33P] ATP, 5 mM MgCl2, 30 minutes, 37° C. As to the method:
Aurora 1 and 2 (Respectively. Aurora B and A)
The inhibitory effect of compounds with respect to the Aurora 1 and 2 kinases is determined with a radioactivity scintillation assay using nickel chelate.
The kinase activity of Aurora is measured by the phosphorylation of NuMA-histidine substrate in the presence of radiolabelled ATP ([^33P] ATP) using 96 well Flash plates where the nickel-chelate is linked to the surface of the microplate. The amount of ^33P incorporated to the substrate NuMA is proportional to the aurora activity.
The Flash plates used are nickel-chelate 96 well plates (Perkin Elmer, model SMP107).
The products to be evaluated are incubated in a 100 μl reaction volume per well in the presence of 10 nM of Aurora-B or Aurora-A, 500 nM of NuMA substrate in the following buffer: 50 mM of NaCl, 5 mM MgCl2, (Aurora-B) or 10 mM MgCl2 (Aurora-A) and 1 mM of DTT at 37° C.
80 μL of enzyme/substrate incubation buffer is distributed in each well, followed by 10 μL of solution of compound to be measured with various concentrations. The reaction is started by adding 1 μM of ATP (final concentration) containing 0.2 μCi of [^33P] ATP (10 μL). After 30 minutes of incubation the reaction is stopped by removal of the reaction mixture and each well is washed twice with 300 μl of buffer Tris/HCl. The radioactivity is measured in each well using a Packard Top count scintillation counter instrument.
The enzymatic activity is expressed as counts per minute obtained in 30 minutes after subtraction of the background noise (reaction medium without enzyme). The measurement is expressed as percentage of inhibition of Aurora activity versus the control. To generate IC50 values, compounds of the invention are tested at different concentration and the percentage of inhibition are plotted as function of compound concentration, IC50s are calculated using the Xlfit 4 curve fitting software.

Molecules are shown by their SMILES.

T2 sequence (Q96GD4 whole entry, species assumed): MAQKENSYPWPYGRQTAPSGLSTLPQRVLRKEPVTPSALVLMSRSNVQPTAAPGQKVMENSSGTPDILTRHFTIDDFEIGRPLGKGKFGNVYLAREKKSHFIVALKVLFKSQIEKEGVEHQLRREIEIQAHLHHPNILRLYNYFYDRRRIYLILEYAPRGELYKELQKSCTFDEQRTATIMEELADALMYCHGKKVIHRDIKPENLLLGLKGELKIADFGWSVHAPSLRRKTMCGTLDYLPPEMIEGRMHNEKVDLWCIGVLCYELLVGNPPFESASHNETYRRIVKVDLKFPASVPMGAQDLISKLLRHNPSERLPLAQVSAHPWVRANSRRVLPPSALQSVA
T2 sequence (Q9NQS7 821-918 partner limits assumed, species assumed): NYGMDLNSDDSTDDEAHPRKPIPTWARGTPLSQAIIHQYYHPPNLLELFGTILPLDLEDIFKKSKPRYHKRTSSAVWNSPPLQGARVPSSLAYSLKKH

Turning to `O=C1CNCC2=C1C(c1ccc(Sc3nc4ccccc4[nH]3)o1)c1c[nH]nc1N2CC(O)CN1CCOCC1` (stereo not drawn) [Example 52, 4-[5-(1H-Benzimidazol-2-ylsulfanyl)-furan-2-yl]-9-(2-hydroxy-3-morpholin-4-yl-propyl)-2,4,6,7,8,9-hexahydro-pyrazolo[3,4-b]-1,7-naphthyridin-5-one; compound with trifluoro-acetic acid], the IC50 (usually the concentration needed to halve the response being measured) at Aurora2 (Aurora-A) was determined as 1940 nM; at Aurora1 (Aurora-B), 145 nM.
The corresponding values for `CN1C2=C(C(=O)CCC2)C(c2ccc(Sc3nc4ccccc4[nH]3)o2)c2c[nH]nc21` (stereo not drawn) [Example 59, 4-[5-(1H-Benzimidazol-2-ylsulfanyl)-furan-2-yl]-9-methyl-2,4,6,7,8,9-hexahydro-pyrazolo[3,4-b]quinolin-5-one; compound with trifluoro-acetic acid] are 2220 nM and 136 nM.
The corresponding values for `Cc1ccc2[nH]c(Sc3ccc(C4C5=C(CCCC5=O)Nc5n[nH]cc54)o3)nc2c1` (stereo not drawn) [Example 70, 4-[5-(5-Methyl-1H-benzimidazol-2-ylsulfanyl)-furan-2-yl]-2,4,6,7,8,9-hexahydro-pyrazolo[3,4-b]quinolin-5-one; compound with trifluoro-acetic acid compound with trifluoro-acetic acid] are 31 nM and 8 nM.
In the same order, the values of `Cc1ccc2[nH]c(Sc3ccc(C4C5=C(CNCC5=O)Nc5n[nH]cc54)o3)nc2c1` (stereo not drawn) [Example 71, 4-[5-(5-Methyl-1H-benzimidazol-2-ylsulfanyl)-furan-2-yl]-2,4,6,7,8,9-hexahydro-pyrazolo[3,4-b]-1,7-naphthyridin-5-one; compound with trifluoro-acetic acid] are 187 nM and 15 nM.
As for `Cc1ccc2[nH]c(Sc3ccc(C4C5=C(CC(C)(C)CC5=O)Nc5n[nH]cc54)o3)nc2c1` (stereo not drawn) [Example 72, 7,7-Dimethyl-4-[5-(5-methyl-1H-benzimidazol-2-ylsulfanyl)-furan-2-yl]-2,4,6,7,8,9-hexahydro-pyrazolo[3,4-b]quinolin-5-one], the IC50 on Aurora2 (Aurora-A) was 20 nM; at Aurora1 (Aurora-B), 6 nM.
As to `O=C1CCCC2=C1C(c1ccc(Sc3nc4cc(Cl)ccc4s3)o1)c1c[nH]nc1N2` (stereo not drawn) [Example 73, 4-[5-(5-Chloro-benzothiazol-2-ylsulfanyl)-furan-2-yl]-2,4,6,7,8,9-hexahydro-pyrazolo[3,4-b]quinolin-5-one; compound with trifluoro-acetic acid], the IC50 on Aurora2 (Aurora-A) was found to be 35 nM; on Aurora1 (Aurora-B), 55 nM.
The corresponding values for `O=C1CNCC2=C1C(c1ccc(Sc3nc4cc(Cl)ccc4s3)o1)c1c[nH]nc1N2` (stereo not drawn) [Example 74, 4-[5-(5-Chloro-benzothiazol-2-ylsulfanyl)-furan-2-yl]-2,4,6,7,8,9-hexahydro-pyrazolo[3,4-b]-1,7-naphthyridin-5-one; compound with trifluoro-acetic acid] are 302 nM and 521 nM.
The corresponding values for `CC1(C)CC(=O)C2=C(C1)Nc1n[nH]cc1C2c1ccc(Sc2nc3cc(Cl)ccc3s2)o1` (stereo not drawn) [Example 75, 4-[5-(5-Chloro-benzothiazol-2-ylsulfanyl)-furan-2-yl]-7,7-dimethyl-2,4,6,7,8,9-hexahydro-pyrazolo[3,4-b]quinolin-5-one] are 73 nM and 183 nM.
In the case of `O=C1CCCC2=C1C(c1ccc(Sc3nc4cc(OC(F)F)ccc4[nH]3)o1)c1c[nH]nc1N2` (stereo not drawn) [Example 76, 4-[5-(5-Difluoromethoxy-1H-benzimidazol-2-ylsulfanyl)-furan-2-yl]-2,4,6,7,8,9-hexahydro-pyrazolo[3,4-b]quinolin-5-one; compound with trifluoro-acetic acid], the results for the IC50 at Aurora2 (Aurora-A) and on Aurora1 (Aurora-B) were 46 nM and 9 nM, respectively.
In the same order, the values of `COc1ccc2nc(Oc3ccc(C4C5=C(CCCC5=O)Nc5n[nH]cc54)o3)[nH]c2c1` (stereo not drawn) [Example 77, 4-[5-(6-Methoxy-1H-benzimidazol-2-yloxy)-furan-2-yl]-2,4,6,7,8,9-hexahydro-pyrazolo[3,4-b]quinolin-5-one; compound with trifluoro-acetic acid] are 2480 nM and 473 nM.
On to `Cc1c[nH]c(Sc2ccc(C3C4=C(CCCC4=O)Nc4n[nH]cc43)o2)n1` (stereo not drawn) [Example 78, 4-[5-(4-methyl-1H-imidazol-2-ylsulfanyl)-furan-2-yl]-2,4,6,7,8,9-hexahydro-pyrazolo[3,4-b]quinolin-5-one; compound with trifluoro-acetic acid], for which the results for the IC50 at Aurora2 (Aurora-A) and at Aurora1 (Aurora-B) were 331 nM and 121 nM, respectively.
In the same order, the values of `COc1ccc2[nH]c(Sc3ccc(C4C5=C(CCCC5=O)Nc5n[nH]cc54)o3)nc2c1` (stereo not drawn) [Example 79, 4-[5-(5-Methoxy-1H-benzimidazol-2-ylsulfanyl)-furan-2-yl]-2,4,6,7,8,9-hexahydro-pyrazolo[3,4-b]quinolin-5-one; compound with trifluoro-acetic acid] are 70 nM and 15 nM.
The corresponding values for `COc1ccc2[nH]c(Sc3ccc(C4C5=C(CNCC5=O)Nc5n[nH]cc54)o3)nc2c1` (stereo not drawn) [Example 80, 4-[5-(5-Methoxy-1H-benzimidazol-2-ylsulfanyl)-furan-2-yl]-2,4,6,7,8,9-hexahydro-pyrazolo[3,4-b]-1,7-naphthyridin-5-one; compound with trifluoro-acetic acid] are 495 nM and 41 nM.
The corresponding values for `COc1ccc2[nH]c(Sc3ccc(C4C5=C(CC(C)(C)CC5=O)Nc5n[nH]cc54)o3)nc2c1` (stereo not drawn) [Example 81, 4-[5-(5-Methoxy-1H-benzimidazol-2-ylsulfanyl)-furan-2-yl]-7,7-dimethyl-2,4,6,7,8,9-hexahydro-pyrazolo[3,4-b]quinolin-5-one] are 33 nM and 11 nM.
Regarding `Cn1c(Sc2ccc(C3C4=C(CCCC4=O)Nc4n[nH]cc43)o2)nc2ccccc21` (stereo not drawn) [Example 82, 4-[5-(1-Methyl-1H-benzimidazol-2-ylsulfanyl)-furan-2-yl]-2,4,6,7,8,9-hexahydro-pyrazolo[3,4-b]quinolin-5-one; compound with trifluoro-acetic acid], the IC50 at Aurora2 (Aurora-A) came to 1340 nM; on Aurora1 (Aurora-B) it was 150 nM.
The corresponding values for `Cn1c(Sc2ccc(C3C4=C(CC(C)(C)CC4=O)Nc4n[nH]cc43)o2)nc2ccccc21` (stereo not drawn) [Example 84, 7,7-Dimethyl-4-[5-(1-methyl-1H-benzimidazol-2-ylsulfanyl)-furan-2-yl]-2,4,6,7,8,9-hexahydro-pyrazolo[3,4-b]quinoline-5-one] are 947 nM and 177 nM.
In the same order, the values of `O=C1CCCC2=C1C(c1ccc(Sc3nc4cc(Cl)c(Cl)cc4[nH]3)o1)c1c[nH]nc1N2` (stereo not drawn) [Example 85, 4-[5-(5,6-Dichloro-1H-benzimidazol-2-ylsulfanyl)-furan-2-yl]-2,4,6,7,8,9-hexahydro-pyrazolo[3,4-b]quinolin-5-one; compound with trifluoro-acetic acid] are 22 nM and 9 nM.
In the same order, the values of `O=C1CNCC2=C1C(c1ccc(Sc3nc4cc(Cl)c(Cl)cc4[nH]3)o1)c1c[nH]nc1N2` (stereo not drawn) [Example 86, 4-[5-(5,6-Dichloro-1H-benzoimidazol-2-ylsulfanyl)-furan-2-yl]-2,4,6,7,8,9-hexahydro-pyrazolo[3,4-b]-1,7-naphthyridin-5-one; compound with trifluoro-acetic acid] are 82 nM and 17 nM.

These data come from patent US8163768B2, “1,4-dihydropyridine-fused heterocycles, process for preparing the same, use and compositions containing them” (Aventis Pharma S.A.., priority 2005, dated 2012).
